Reference: US12668587B2, “Benzimidazolone GLP-1 receptor agonist and use thereof” (HANGZHOU ZHONGMEIHUADONG PHARMACEUTICAL CO., LTD., priority 2020, dated 2026)
Like-named read-outs stand apart in the source and are kept apart here.

Tests used:
[1] = Metabolic stability in (human) liver microsomes; settings: pH 7.4
Human GLP-1R = Human GLP-1R (Homo sapiens, UniProt P43220); assay: GLP-1R agonist activity, HTRF cAMP detection in 293A GFP-GLP-1R cells; design: Emax: dose or concentration left out as unconfirmed; settings: for Emax: 293A
Method: GLP-1R-mediated agonist activity was determined by cell-based assays using a homogeneous time-resolved fluorescence (i.e., HTRF)-based cAMP detection kit, which measures the level of cAMP in cells. The method was a competitive immunoassay. It enabled direct pharmacological characterization of compounds acting on Gs-coupled receptors in adherent or suspending cells.
The standard curve of native cAMP or unlabeled cAMP produced by cells competed with d2-labeled cAMP red receptors to bind monoclonal anti-cAMP Eu3+ cryptate donors, and the specific signal was inversely proportional to the concentration of cAMP in standard or tested samples.
Human GLP-1R encoding sequence (NCBI reference sequence NP_002053.3) was subcloned into pEGFP-N1 (tsingke), and the cell line stably expressing the receptor was isolated. The expression density of GLP-1R was confirmed by the expression of GFP observed under a fluorescence microscope.
Cells were collected from a T25 tissue culture flask and centrifuged at room temperature at 1000 rpm for 5 minutes. The cell precipitates were then re-suspended in 1 mL of the stimulating buffer. 20 μL sample of cell suspension was counted on a counter STAR IC 1000 to determine the cell viability and the cell count per mL. The remaining cell suspension was then regulated with the stimulating buffer to deliver 2000 living cells per well using a multi-channel pipette. 5 μL of the cell suspension was added to each well of the plate which already contained the compound. The plate was sealed and incubated at 37° C. with 5% CO2 for 30 minutes.
After 30 minutes of incubation, 5 μL of d2-labeled cAMP and 5 μL of anti-cAMP cryptate (both 1: 20 diluted in the cell lysis buffer) were added to each well of the plate. The plate was then incubated at room temperature for 60 minutes, and the changes of HTRF signal were read with Tecan Spark reader: absorbance values at 340 nm (excitation)/at 615 nm and 665 nm (emission). Raw data were converted into nM cAMP by interpolation from the cAMP standard curve, and the effect in percentage was determined relative to the saturated concentration of the complete agonist GLP-17˜37 (400 nM) contained in each plate. Determination of EC50 was performed based on the agonist dose-response curve, which was analyzed using a four-parameter logical dose-response equation with a curve fitting program.
The test data presented the results in the form of a geometric mean (EC50s) based on the number of repetition times.

hERG potassium channels = hERG potassium channels (Homo sapiens, UniProt Q12809); assay: Inhibition of hERG potassium channels, whole-cell patch clamp in HEK-293-hERG cells
[2] = cAMP level, 293A GFP-GLP-1R cells, 30 min incubation, geometric mean

Chain of Human GLP-1R (P43220 24-463): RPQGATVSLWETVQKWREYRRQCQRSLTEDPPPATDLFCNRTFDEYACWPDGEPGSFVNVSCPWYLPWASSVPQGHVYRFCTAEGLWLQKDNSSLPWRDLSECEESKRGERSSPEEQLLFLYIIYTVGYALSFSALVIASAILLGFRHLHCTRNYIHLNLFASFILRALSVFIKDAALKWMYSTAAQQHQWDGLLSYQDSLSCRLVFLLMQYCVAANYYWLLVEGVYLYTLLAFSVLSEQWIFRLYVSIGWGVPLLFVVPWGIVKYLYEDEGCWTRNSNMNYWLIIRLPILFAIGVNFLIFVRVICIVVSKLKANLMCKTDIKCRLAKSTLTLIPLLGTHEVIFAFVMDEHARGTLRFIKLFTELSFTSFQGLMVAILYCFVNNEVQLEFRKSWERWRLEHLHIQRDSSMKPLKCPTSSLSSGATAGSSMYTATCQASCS
Chain of hERG potassium channels (Q12809 whole entry): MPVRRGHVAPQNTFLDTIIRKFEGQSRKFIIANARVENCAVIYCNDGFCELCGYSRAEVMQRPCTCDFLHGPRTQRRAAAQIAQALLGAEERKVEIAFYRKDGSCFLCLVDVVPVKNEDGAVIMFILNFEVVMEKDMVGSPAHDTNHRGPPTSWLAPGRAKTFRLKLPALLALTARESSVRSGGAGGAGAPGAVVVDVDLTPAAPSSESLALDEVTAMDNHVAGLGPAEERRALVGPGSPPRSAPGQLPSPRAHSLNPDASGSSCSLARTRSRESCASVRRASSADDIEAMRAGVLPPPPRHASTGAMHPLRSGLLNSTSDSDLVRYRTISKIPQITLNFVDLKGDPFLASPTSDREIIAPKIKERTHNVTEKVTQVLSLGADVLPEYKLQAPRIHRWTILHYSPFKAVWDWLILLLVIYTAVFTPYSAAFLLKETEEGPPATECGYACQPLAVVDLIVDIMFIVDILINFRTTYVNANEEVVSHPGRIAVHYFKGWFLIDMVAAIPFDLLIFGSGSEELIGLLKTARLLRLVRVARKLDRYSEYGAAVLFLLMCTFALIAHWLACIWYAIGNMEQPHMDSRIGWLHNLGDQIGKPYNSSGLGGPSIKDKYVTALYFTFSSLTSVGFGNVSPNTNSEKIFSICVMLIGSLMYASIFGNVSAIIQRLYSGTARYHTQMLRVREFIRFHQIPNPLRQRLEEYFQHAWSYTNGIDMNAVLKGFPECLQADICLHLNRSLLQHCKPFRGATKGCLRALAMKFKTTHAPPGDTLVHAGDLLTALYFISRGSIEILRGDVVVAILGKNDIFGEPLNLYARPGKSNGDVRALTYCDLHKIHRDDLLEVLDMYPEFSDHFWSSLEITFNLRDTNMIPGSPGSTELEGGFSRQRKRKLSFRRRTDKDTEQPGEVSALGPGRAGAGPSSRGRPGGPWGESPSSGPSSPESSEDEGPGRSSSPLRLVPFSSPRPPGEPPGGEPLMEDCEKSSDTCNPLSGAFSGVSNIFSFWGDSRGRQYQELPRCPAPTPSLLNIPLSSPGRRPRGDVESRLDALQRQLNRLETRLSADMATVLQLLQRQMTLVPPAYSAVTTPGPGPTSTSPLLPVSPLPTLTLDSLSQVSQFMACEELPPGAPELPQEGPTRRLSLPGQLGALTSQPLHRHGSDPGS

## O=C(O)c1ccc2nc(CN3CC=C(c4cccc(OCc5ccc(C(=O)C6CC6)cc5F)n4)CC3)n(C[C@@H]3CCO3)c2c1 [Compound 22, (S)-2-((6-((4-(cyclopropanecarbonyl)-2-fluorobenzyl)oxy)-3′,6′-dihydro-[2,4′-bipyridin]-1′(2′H)-yl)methyl)-1-(oxetan-2-ylmethyl)-1H-benzo[d]imidazole-6-carboxylic acid]
[1]
  half-life at 1 μM: 60.1 min
Human GLP-1R
  EC50: 2.07 nM
  Emax: 83.4%
hERG potassium channels; inhibition rate of hERG tail current at 1 μM
  hERG (IR): 0.92%
hERG potassium channels; inhibition rate of hERG tail current at 10 μM
  hERG (IR): 23.50%

## CC(=O)c1ccc(COc2cccc(C3CCN(Cc4nc5ccc(C(=O)O)cc5n4C[C@@H]4CCO4)CC3)n2)c(OC2CC2)c1 [Compound 31, (S)-2-((4-(6-((4-acetyl-2-cyclopropoxybenzyl)oxy)pyridin-2-yl)piperidin-1-yl)methyl)-1-(oxetan-2-ylmethyl)-1H-benzo[d]imidazole-6-carboxylic acid]
Human GLP-1R
  EC50: 18.5 nM
  Emax: 75.4%

## CS(=O)(=O)c1ccc(COc2cccc(C3CCN(Cc4nc5ccc(C(=O)O)cc5n4C[C@@H]4CCO4)CC3)n2)c(F)c1 [Compound 2, (S)-2-((4-(6-((2-fluoro-4-(methylsulfonyl)benzyl)oxy)pyridin-2-yl)piperidin-1-yl)methyl)-1-(oxetan-2-methyl)-1H-benzo[d]imidazole-6-carboxylic acid]
Human GLP-1R
  EC50: > 1000 nM
  Emax: 29.8%

## COc1cc(C(=O)C2CC2)ccc1COc1cccc(C2CCN(Cc3nc4ccc(C(=O)O)cc4n3C[C@@H]3CCO3)CC2)n1 [Compound 20, (S)-2-((4-(6-((4-(cyclopropanecarbonyl)-2-methoxybenzyl)oxy)pyridin-2-yl)piperidin-1-yl)methyl)-1-(oxetan-2-ylmethyl)-1H-benzo[d]imidazole-6-carboxylic acid]
Human GLP-1R
  EC50: 0.31 nM
  Emax: 120%

## COc1cc(C(=O)C2CC2)cc(F)c1COc1cccc(C2CCN(Cc3nc4ccc(C(=O)O)cc4n3C[C@@H]3CCO3)CC2)n1 [Compound 36, (S)-2-((4-(6-((4-(cyclopropanecarbonyl)-2-fluoro-6-methoxybenzyl)oxy)pyridin-2-yl)piperidin-1-yl)methyl)-1-(oxetan-2-ylmethyl)-1H-benzo[d]imidazole-6-carboxylic acid]
Human GLP-1R
  EC50: 20.4 nM
  Emax: 84.9%

## CC(=O)c1cccc(COc2cccc(C3CCN(Cc4nc5ccc(C(=O)O)cc5n4C[C@@H]4CCO4)CC3)n2)c1 [Compound 18, (S)-2-((4-(6-((3-acetylbenzyl)oxy)pyridin-2-yl)piperidin-1-yl)methyl)-1-(oxetan-2-ylmethyl)-1H-benzo[d]imidazole-6-carboxylic acid]
Human GLP-1R
  EC50: 22.1 nM
  Emax: 113%

## O=C(O)c1ccc2nc(CN3CCC(c4cccc(OCc5ccc(C(=O)C6CC6)cc5F)n4)CC3)n(C[C@@H]3CCO3)c2n1 [Compound 33, (S)-2-((4-(6-((4-(cyclopropanecarbonyl)-2-fluorobenzyl)oxy)pyridin-2-yl)piperidin-1-yl)methyl)-3-(oxetan-2-ylmethyl)-3H-imidazo[4,5-b]pyridine-5-carboxylic acid]
Human GLP-1R
  EC50: 1.59 nM
  Emax: 92.9%

## CC(=O)c1ccc(COc2cccc(C3CCN(Cc4nc5ccc(C(=O)O)cc5n4C[C@@H]4CCO4)CC3)n2)c(C(F)(F)F)c1 [Compound 11, (S)-2-((4-(6-((4-acetyl-2-(trifluoromethyl)benzyl)oxy)pyridin-2-yl)piperidin-1-yl)methyl)-1-(oxetan-2-ylmethyl)-1H-benzo[d]imidazole-6-carboxylic acid]
Human GLP-1R
  EC50: 42.5 nM
  Emax: 85.5%

## O=C(O)c1ccc2nc(Cc3ccc(-c4cccc(OCc5ccc(C(=O)C6CC6)cc5F)n4)cc3F)n(CC3(CF)CC3)c2c1 [Compound 48]
Human GLP-1R
  EC50: 0.065 nM

## CC(=O)c1ccc(COc2cccc(C3CCN(Cc4nc5ccc(C(=O)O)cc5n4C[C@@H]4CCO4)CC3)n2)c(OC(F)(F)F)c1 [Compound 21, (S)-2-((4-(6-((4-acetyl-2-(trifluoromethoxy)benzyl)oxy)pyridin-2-yl)piperidin-1-yl)methyl)-1-(oxetan-2-ylmethyl)-1H-benzo[d]imidazole-6-carboxylic acid]
Human GLP-1R
  EC50: 95.3 nM
  Emax: 91.8%

## CC(=O)c1ccc(COc2cccc(C3=CCN(Cc4nc5ccc(C(=O)O)cc5n4C[C@@H]4CCO4)CC3)n2)c(F)c1 [Compound 34, (S)-2-((6-((4-acetyl-2-fluorobenzyl)oxy)-3′,6′-dihydro-[2,4′-bipyridin]-1′(2′H)-yl)methyl)-1-(oxetan-2-ylmethyl)-1H-benzo[d]imidazole-6-carboxylic acid]
[1]
  half-life at 1 μM: 14.2 min
Human GLP-1R
  EC50: 0.7 nM
  Emax: 81.5%

## COc1cc(COc2cccc(C3=CCN(Cc4nc5ccc(C(=O)O)cc5n4C[C@@H]4CCO4)CC3)n2)ccc1C(C)=O [Compound 23, (S)-2-((6-((4-acetyl-3-methoxybenzyl)oxy)-3′,6′-dihydro-[2,4′-bipyridin]-1′(2′H)-yl)methyl)-1-(oxetan-2-ylmethyl)-1H-benzo[d]imidazole-6-carboxylic acid]
Human GLP-1R
  EC50: 16.1 nM
  Emax: 108%

## O=C(O)c1ccc2nc(CN3CCC(c4cccc(OCc5ccc(C(=O)C6CC6)cc5Cl)n4)CC3)n(C[C@@H]3CCO3)c2c1 [Compound 44, (S)-2-((4-(6-((2-chloro-4-(cyclopropanecarbonyl)benzyl)oxy)pyridin-2-yl)piperidin-1-yl)methyl)-1-(oxetan-2-ylmethyl)-1H-benzo[d]imidazole-6-carboxylic acid]
Human GLP-1R
  EC50: 0.02 nM

## O=C(O)c1ccc2nc(CC3CCN(c4cccc(OCc5ccc(C(=O)C6CC6)cc5F)n4)CC3)n(C[C@@H]3CCO3)c2c1 [Compound 42, (S)-2-((1-(6-((4-(cyclopropanecarbonyl)-2-fluorobenzyl)oxy)pyridin-2-yl)piperidin-4-yl)methyl)-1-(oxetan-2-ylmethyl)-1H-benzo[d]imidazole-6-carboxylic acid]
Human GLP-1R
  EC50: 0.23 nM

## CC(=O)c1ccc(COc2cccc(C3CCN(Cc4nc5ccc(C(=O)O)nc5n4C[C@@H]4CCO4)CC3)n2)c(F)c1 [Compound 5, (S)-2-((4-(6-((4-acetyl-2-fluorobenzyl)oxy)pyridin-2-yl)piperidin-1-yl)methyl)-3-(oxetan-2-ylmethyl)-3H-imidazo[4,5-b]pyridine-5-carboxylic acid]
Human GLP-1R
  EC50: 0.54 nM
  Emax: 81.3%

## O=C(O)c1ccc2nc(CN3CCC(c4cccc(OCc5ccc(C(=O)C6CCOCC6)cc5F)n4)CC3)n(C[C@@H]3CCO3)c2c1 [Compound 19, (S)-2-((4-(6-((2-fluoro-4-(tetrahydro-2H-pyran-4-carbonyl)benzyl)oxy)pyridin-2-yl)piperidin-1-yl)methyl)-1-(oxetan-2-ylmethyl)-1H-benzo[d]imidazole-6-carboxylic acid]
Human GLP-1R
  Emax: 129%
Human GLP-1R; [2]
  EC50: 145 nM

## CCC(=O)c1ccc(COc2cccc(C3=CCN(Cc4nc5ccc(C(=O)O)cc5n4C[C@@H]4CCO4)CC3)n2)c(F)c1 [Compound 25, (S)-2-((6-((2-fluoro-4-propionylbenzyl)oxy)-3′,6′-dihydro-[2,4′-bipyridin]-1′(2′H)-yl)methyl)-1-(oxetan-2-ylmethyl)-1H-benzo[d]imidazole-6-carboxylic acid]
[1]
  half-life at 1 μM: 25.5 min
Human GLP-1R
  EC50: 0.95 nM
  Emax: 100%

## CC(=O)c1ccc(COc2cccc(C3CCN(Cc4nc5ccc(C(=O)O)cc5n4C[C@@H]4CCO4)CC3)n2)c(Cl)c1 [Compound 27]
Human GLP-1R
  EC50: 0.13 nM
  Emax: 83.9%

## CC(=O)c1ccc(COc2cccc(C3CCN(Cc4nc5ccc(C(=O)O)cc5n4C[C@@H]4CCO4)CC3)n2)cc1 [Compound 16, (S)-2-((4-(6-((4-acetylbenzyl)oxy)pyridin-2-yl)piperidin-1-yl)methyl)-1-(oxetan-2-ylmethyl)-1H-benzo[d]imidazole-6-carboxylic acid]
Human GLP-1R
  EC50: 7.19 nM
  Emax: 88.2%

## Cc1cc(COc2cccc(C3CCN(Cc4nc5ccc(C(=O)O)cc5n4C[C@@H]4CCO4)CC3)n2)c(F)cc1C(=O)C1CC1 [Compound 38, (S)-2-((4-(6-((4-(cyclopropanecarbonyl)-2-fluoro-5-methylbenzyl)oxy)pyridin-2-yl)piperidin-1-yl)methyl)-1-(oxetan-2-ylmethyl)-1H-benzo[d]imidazole-6-carboxylic acid]
Human GLP-1R
  EC50: > 1000 nM
  Emax: 85.9%

## CC(C)C(=O)c1ccc(COc2cccc(C3CCN(Cc4nc5ccc(C(=O)O)cc5n4C[C@@H]4CCO4)CC3)n2)c(F)c1 [Compound 43, (S)-2-((4-(6-((2-fluoro-4-isobutyrylbenzyl)oxy)pyridin-2-yl)piperidin-1-yl)methyl)-1-(oxetan-2-ylmethyl)-1H-benzo[d]imidazole-6-carboxylic acid]
Human GLP-1R; [2]
  EC50: 1.4 nM

## CON(C)C(=O)c1ccc(COc2cccc(C3CCN(Cc4nc5ccc(C(=O)O)cc5n4C[C@@H]4CCO4)CC3)n2)c(F)c1 [Compound 15, (S)-2-((4-(6-((2-fluoro-4-(methoxy(methyl)carbamoyl)benzyl)oxy)pyridin-2-yl)piperidin-1-yl)methyl)-1-(oxetan-2-ylmethyl)-1H-benzo[d]imidazole-6-carboxylic acid]
Human GLP-1R
  EC50: > 1000 nM
  Emax: 13.6%
